# Measurements as given in US5472979A, “1,2,3,4-tetrahydronaphthalene compounds” (Adir et Compagnie, priority 1993, dated 1995).
# Structures can show the parent of a compound that is named as a salt.
# How the values were obtained:
# [1] = tested on: platelet aggregation induced by the TXA2 agonist, U46619; test: Platelet aggregation in dogs (PRP, adrenalin + U46619-induced); type: cell-based; conditions: Canis lupus familiaris, 0.05 h, dog PRP, 37° C., 3 min, adrenalin (10 μM) then U46619, read-out: IC50 Dog (inhibition of aggregation to U46619 + adrenalin)
# Experimental: After anesthetizing the animal with pentobarbital sodium (30 mg/kg i.v.), arterial blood is withdrawn onto sodium citrate (0.109M) (1 vol. of citrate per 9 vol. of blood). The platelet-rich plasma (PRP) is obtained after centrifugation (20° C.) at 200 g for 10 minutes. The number of platelets in the PRP is, on average, 300,000 PL/mm^3 The PRP is stored at the temperature of the room until the time of the test, and is used within 4 hours following withdrawal.
# The PRP is incubated at 37° C. in the presence of the antagonist to be tested for 3 minutes. Aggregation is subsequently obtained by the addition of adrenalin (10μM) followed by that of U46619 […] 30 seconds later.
# [2] = tested on: platelet aggregation induced by the TXA2 agonist, U46619; test: Platelet aggregation in rabbits (PRP, U46619-induced); type: cell-based; conditions: Oryctolagus cuniculus, rabbit PRP, 37° C., antagonist 3 min before U46619, read-out: IC50 Rabbit (inhibition of U46619-induced platelet aggregation)
# Experimental: Rabbits (2-3 kg) are anesthetized with pentobarbital sodium (30 mg/kg i.v.). After cannulation of the left carotid artery, blood is withdrawn onto sodium citrate (0.109M) (1 vol. of citrate per 9 vol. of blood).
# Platelet-rich plasma (PRP) is obtained by centrifugation (20° C.) at 250 g for 20 minutes, and platelet-poor plasma (PPP) by centrifugation at 1000 g (10 min). The number of platelets (PL) in the PRP is adjusted to between 300-350,000 PL/mm^3 by dilution with autologous PPP. The PRP is stored at the temperature of the room until the time of the test, and is used within 4 hours following withdrawal.
# Platelet aggregation is carried out at 37° C. in siliconed glass tubes using an aggregometer. The PRP and PLs are stirred at 1000 rpm (revolutions per minute). In order to study the activity of thromboxane antagonists, the PRP is incubated for 1 min at 37° C., and the antagonist is then added for a period of 3 min before addition of the agonist U46619 […]. The final volume in the cell is then […]. The intensity of platelet aggregation is established by taking the maximum amplitude of the aggregation plots and is expressed as a percentage light transmission (% T).
# [3] = tested on: platelet aggregation of U46619; test: ex vivo platelet aggregation in dogs after oral administration; set-up: species or system dog
# Experimental: The experiments are carried out on non-anesthetized dogs. After applying a tourniquet and introduction of a needle into the cephalic vein, blood is withdrawn onto sodium citrate (0.109M). The blood is stored at the temperature of the room. Platelet aggregation is measured in the total blood using an impedance probe in an aggregometer. The pro-aggregating activity of the thromboxane receptor agonist, U46619, is tested in the presence of adrenalin (10 μM). The products of the invention and the reference substances are administered to dogs orally after performing the control test. Blood samples are subsequently withdrawn at determined times: t=30 min, 1 h, 2 h, 4 h, 6 h, 24 h, 48 h, etc. until the aggregation activity of U46619 has fully returned.
# platelet TXA2 receptors = biological target: T1, platelet TXA2 receptors (Homo sapiens, UniProt P21731); test: Specific binding to human platelet membranes (3H-SQ29548 competition); conditions: 25° C., Cheng and Prusoff
# T1 construct: platelet membranes, prepared from washed, ground and centrifuged human platelets; from tissue; host or cells: human platelets (membranes)
# T1 sequence (P21731 1-343): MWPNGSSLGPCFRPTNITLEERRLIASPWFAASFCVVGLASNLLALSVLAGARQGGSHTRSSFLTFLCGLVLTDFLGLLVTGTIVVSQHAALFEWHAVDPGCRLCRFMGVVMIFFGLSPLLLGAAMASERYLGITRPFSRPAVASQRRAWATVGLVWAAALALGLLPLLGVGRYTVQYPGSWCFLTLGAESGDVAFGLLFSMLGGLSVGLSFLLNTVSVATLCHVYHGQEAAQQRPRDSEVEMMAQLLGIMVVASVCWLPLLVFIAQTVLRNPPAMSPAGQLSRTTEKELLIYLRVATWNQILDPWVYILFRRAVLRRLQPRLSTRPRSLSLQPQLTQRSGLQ
# Experimental: The experiments take place at a temperature of 25° C. in a final reaction volume of 0.2 ml in the presence of 0.1 mg of platelet membranes, prepared from washed, ground and centrifuged human platelets. Determination of the activity of the products of the invention is made by competition experiments, in which increasing concentrations of product are placed in the presence of a fixed concentration of ^3 H-SQ29548. This protocol makes it possible to produce inhibition curves for each antagonist studied. The 50% inhibitory concentration is determined by non-linear regression by the "Simplex" method described by M. S. Caceci et al., (Byte, 340-362, May 1984) calculated according to the mass action law model of C. Michaelis et al. (Biochem. Zeitschrift, 49, 333-369, 1913). The inhibition constant is then determined using the formula of Cheng and Prusoff (Biochem. Pharmacol., 22, 3099-3108, 1973).
# [4] = tested on: platelet aggregation induced by the TXA2 agonist, U46619; test: Platelet aggregation in man (PRP, U46619-induced); type: cell-based; conditions: human PRP, procedure of Example 19, U46619 0.3 mM, read-out: IC50 (inhibition of U46619-induced platelet aggregation)
# Experimental: Dog platelets respond weakly to U46619 alone. […] The PRP is incubated at 37° C. in the presence of the antagonist to be tested for 3 minutes. Aggregation is subsequently obtained by the addition of adrenalin (10μM) followed by that of U46619 […] 30 seconds later.
# Venous blood is obtained from human volunteers who have taken no aspirin for at least 14 days preceding the experiment. Blood is withdrawn onto sodium citrate (0.109M) (1 vol. of citrate per 9 vol. of blood). Platelet-rich plasma (PRP) is obtained after centrifugation (20° C.) at 200 g for 10 minutes. The number of platelets is, on average, 250,000 PL/mm^3. The PRP is stored at the temperature of the room until the time of the test, and is used within 2 hours following withdrawal. The antagonists are tested according to the procedure described in Example 19, using U46619 at the concentration of […].
# [5] = tested on: guinea pig carotid artery; test: Experimental thrombosis in guinea pig carotid artery; type: in vivo; conditions: i.v. injection of 100 μg/kg, n=3; 10±2 CFV/20 min before the treatment; control 9±1 then 8±1
# Experimental: The technique recently described by Roux et al., Thrombosis and Haemostasis, 71, 252-256 (1994), was used in order to measure the anti-thrombotic effect of our products. Male guinea pigs (390 to 420 g) were anesthetized with ketamine hydrochloride (90 mg/kg i.m.) and xylazine (12 mg/kg i.m.). A catheter is introduced into the left jugular vein in order to allow the i.v. injection of the substances. The right carotid artery is prepared and a Doppler probe (20 MHz) is installed, which allows the blood flow to be measured. At a distance of two mm from the Doppler probe a subendothelial lesion is produced using a clamp ("pinching"). After introduction of this lesion, the blood flow decreases and stops altogether (between 1 and 2 min). When the flow is at zero, the artery is touched, which removes the occlusive thrombus and restores the flow (see Roux et al., 1994). This thrombotic process is repeated and the cyclic decreases in the flow (CFV=cyclic flow variations) are expressed as a number per 20 min. In control carotid arteries (n=4), the CFVs are counted over 2 periods of 20 min: during the first period, 9±1 CFV/20 min are counted; during the second period, 8±1 CFV/20 min are counted. In a group of animals (n=3) treated with the compound of Example 1, 10±2 CFV/20 min are counted before the treatment and 0.3±0.3 CFV/20 min are counted alter an i.v. injection of 100 μg/kg.
Structure (SMILES),IC50 [1] [nM],IC50 [2] [nM],further results
"O=C(O)CCc1cccc2c1OCC(NS(=O)(=O)c1ccc(Cl)cc1)C2 (stereo not shown) [Example 16, 3-[3-(4-Chlorophenylsulfonyl)amino-8-chromanyl]propionic acid]",20,250,
"Cc1ccc(S(=O)(=O)NC2CCc3c(CCC(=O)O)cccc3C2)cc1 (stereo not shown) [Example 9, 3-[6-(4-Tolylsulfonylamino)-5,6,7,8-tetrahydronaphth-1-yl]propionic acid]",15,320,
"Cc1ccc2c(c1CCC(=O)O)CCC(NS(=O)(=O)c1cccc3ccccc13)C2 (stereo not shown) [Example 8, 3-[6-(1 -Naphthylsulfonylamino)-2-methyl-5,6,7,8-tetrahydronaphth-1-yl]propionic acid]",150,,
"O=C(O)CCc1cccc2c1OCC(NS(=O)(=O)c1ccc(F)cc1)C2 (stereo not shown) [Example 17, 3-[3-(4-Fluorophenylsulfonyl)aminochroman-8-yl]propionic acid]",,1100,
"Cc1ccc2c(c1CCC(=O)O)CCC(NS(=O)(=O)c1ccc(F)cc1)C2 (stereo not shown) [Example 3, 3-{6-[(4-Fluorophenylsulfonyl)amino]-2-methyl-5,6,7,8-tetrahydronaphth-1-yl}propionic acid, sodium salt]",10,270,
"Cc1ccc2c(c1CCC(=O)O)CCC(NS(=O)(=O)c1ccc(Cl)cc1)C2 (stereo not shown) [Example 1, 3-{6-[(4-Chlorophenylsulfonyl)amino]-2-methyl-5,6,7,8-tetrahydronaphth-1-yl}propionic acid, sodium salt]",28,240,"duration of complete inhibition of U46619 platelet aggregation ex vivo ([3]; 10 μg/kg per os): at least 3 days; duration of inhibition of U46619 platelet aggregation ex vivo ([3]; 100 μg/kg per os): at least 8 days; inhibition of U46619 platelet aggregation ex vivo (words, compared with 100 μg/kg per os, at least 8 days) ([3]; 3 mg/kg per os): same result; duration of complete inhibition of U46619 platelet aggregation ex vivo ([3]; 10 to 3000 μg/kg, orally): at least 3 days; duration of complete inhibition of U46619 platelet aggregation ex vivo, highest dose ([3]; highest dose of 10 to 3000 μg/kg, orally): up to 11 days; Ki (platelet TXA2 receptors): 0.96 nM; IC50 [4]: 84 nM; cyclic flow variations (CFV) after treatment [5]: 0.3±0.3 CFV/20 min"
"O=C(O)CCn1c2c(c3ccccc31)C[C@H](NS(=O)(=O)c1ccc(F)cc1)CC2 [BAY U3405, reference compound]",110,1100,duration of total inhibition of aggregation ex vivo ([3]; 100 μg/kg per os): 6 h; Ki (platelet TXA2 receptors): 3.61 nM; IC50 [4]: 180 nM
"Cc1cc(CCC(=O)O)c2c(c1)CC(NS(=O)(=O)c1ccc(F)cc1)CC2 (stereo not shown) [Example 11, 3-{6-[(4-Fluorophenylsulfonyl)amino]-3-methyl-5,6,7,8-tetrahydronaphth-1-yl}propionic acid]",56,670,
